Biological target: T1, beta-catenin-B-cell lymphoma 9 protein complex (Homo sapiens, UniProt P35222)
T1 sequence (P35222 whole entry): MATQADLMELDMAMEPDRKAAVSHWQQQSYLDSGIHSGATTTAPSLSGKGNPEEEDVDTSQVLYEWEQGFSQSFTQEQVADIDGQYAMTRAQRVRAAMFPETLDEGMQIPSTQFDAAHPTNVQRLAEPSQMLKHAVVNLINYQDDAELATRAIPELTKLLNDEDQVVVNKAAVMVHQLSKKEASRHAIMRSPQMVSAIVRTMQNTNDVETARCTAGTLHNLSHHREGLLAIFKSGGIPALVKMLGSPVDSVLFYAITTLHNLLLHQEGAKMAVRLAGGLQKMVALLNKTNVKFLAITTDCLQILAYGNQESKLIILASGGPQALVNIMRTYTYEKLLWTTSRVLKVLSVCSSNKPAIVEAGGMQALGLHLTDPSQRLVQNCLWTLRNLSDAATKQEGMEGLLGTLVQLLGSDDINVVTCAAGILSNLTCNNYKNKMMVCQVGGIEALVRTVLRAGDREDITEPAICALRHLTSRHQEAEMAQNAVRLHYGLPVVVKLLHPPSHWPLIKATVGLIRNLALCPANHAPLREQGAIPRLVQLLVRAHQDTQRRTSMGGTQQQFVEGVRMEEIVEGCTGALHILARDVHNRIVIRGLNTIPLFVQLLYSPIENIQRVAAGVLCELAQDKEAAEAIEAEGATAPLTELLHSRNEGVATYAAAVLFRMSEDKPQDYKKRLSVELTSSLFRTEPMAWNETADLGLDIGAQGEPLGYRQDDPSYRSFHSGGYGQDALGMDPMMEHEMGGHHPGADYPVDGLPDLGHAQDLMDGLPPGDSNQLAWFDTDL
T1 sequence (O00512 whole entry): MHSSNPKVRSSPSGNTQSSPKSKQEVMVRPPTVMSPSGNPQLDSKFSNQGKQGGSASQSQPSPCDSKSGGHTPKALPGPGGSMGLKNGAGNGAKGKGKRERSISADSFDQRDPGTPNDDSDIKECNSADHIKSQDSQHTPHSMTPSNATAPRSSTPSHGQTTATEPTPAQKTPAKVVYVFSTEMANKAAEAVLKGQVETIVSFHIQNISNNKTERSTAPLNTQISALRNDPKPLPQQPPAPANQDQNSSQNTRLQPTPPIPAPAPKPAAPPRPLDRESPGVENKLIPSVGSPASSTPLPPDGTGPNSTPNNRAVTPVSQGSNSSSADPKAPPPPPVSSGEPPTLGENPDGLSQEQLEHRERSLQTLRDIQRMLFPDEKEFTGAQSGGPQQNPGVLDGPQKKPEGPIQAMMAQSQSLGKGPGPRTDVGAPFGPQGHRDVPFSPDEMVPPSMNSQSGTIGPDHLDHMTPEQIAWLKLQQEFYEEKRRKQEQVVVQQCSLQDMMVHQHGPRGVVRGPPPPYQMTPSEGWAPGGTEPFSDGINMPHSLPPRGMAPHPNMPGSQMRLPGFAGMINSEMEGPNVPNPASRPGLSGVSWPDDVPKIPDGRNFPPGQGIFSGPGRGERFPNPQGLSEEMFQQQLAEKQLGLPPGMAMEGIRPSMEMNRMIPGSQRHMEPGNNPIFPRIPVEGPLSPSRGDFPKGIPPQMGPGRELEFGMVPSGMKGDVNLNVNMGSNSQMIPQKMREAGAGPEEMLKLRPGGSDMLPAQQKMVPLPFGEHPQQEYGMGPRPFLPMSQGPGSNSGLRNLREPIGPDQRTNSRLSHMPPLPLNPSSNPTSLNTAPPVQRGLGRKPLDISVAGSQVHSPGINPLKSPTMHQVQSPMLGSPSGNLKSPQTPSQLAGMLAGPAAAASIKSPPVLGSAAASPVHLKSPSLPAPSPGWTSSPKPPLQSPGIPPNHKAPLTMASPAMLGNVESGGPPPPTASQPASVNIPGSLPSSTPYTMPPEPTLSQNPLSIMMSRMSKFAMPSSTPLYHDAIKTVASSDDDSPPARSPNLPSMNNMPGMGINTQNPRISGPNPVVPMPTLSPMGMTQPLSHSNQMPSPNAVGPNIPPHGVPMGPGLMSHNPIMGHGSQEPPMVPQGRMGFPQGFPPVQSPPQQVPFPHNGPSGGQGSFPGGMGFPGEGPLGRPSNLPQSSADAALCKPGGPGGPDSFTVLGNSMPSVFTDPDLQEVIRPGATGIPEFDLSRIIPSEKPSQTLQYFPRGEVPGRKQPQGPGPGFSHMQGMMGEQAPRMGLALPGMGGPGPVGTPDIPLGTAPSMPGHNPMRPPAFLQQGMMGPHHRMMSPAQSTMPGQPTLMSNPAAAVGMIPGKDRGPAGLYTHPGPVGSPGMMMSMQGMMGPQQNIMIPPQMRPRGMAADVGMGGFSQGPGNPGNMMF
Test: Inhibition of beta-catenin (unknown origin)/BCL9 (unknown origin) protein-protein interaction assessed as inhibition constant by AlphaScreen assay
Format: protein-complex assay

O=C(Nc1ccc(O[C@H]2CCNC2)c(-c2cccc(-c3nn[nH]n3)c2)c1)c1ccc(O[C@H]2CCNC2)c(-c2ccc(F)c(F)c2)c1
Ki: 470 nM
